Reference: ChEMBL document CHEMBL1201862, “PubChem BioAssay data set” (2004)
Active and inactive are the calls of the source.

Columns and labels:
[1] = molecular target: 5-hydroxytryptamine receptor 2A (Mus musculus, UniProt P35363); type: functional, cell-based;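 also: CHO-K1 cells with tagged receptor and beta-arrestin; agonist potency measured as compound-induced activation of the receptor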
Mu-type opioid receptor = Mu-type opioid receptor (Homo sapiens, UniProt P35372); type: functional, cell-based;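 also: U2OS cells with beta-arrestin recruitment to OPRM1 by beta-gal complementation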
Sequence of Mu-type opioid receptor (P35372 whole entry): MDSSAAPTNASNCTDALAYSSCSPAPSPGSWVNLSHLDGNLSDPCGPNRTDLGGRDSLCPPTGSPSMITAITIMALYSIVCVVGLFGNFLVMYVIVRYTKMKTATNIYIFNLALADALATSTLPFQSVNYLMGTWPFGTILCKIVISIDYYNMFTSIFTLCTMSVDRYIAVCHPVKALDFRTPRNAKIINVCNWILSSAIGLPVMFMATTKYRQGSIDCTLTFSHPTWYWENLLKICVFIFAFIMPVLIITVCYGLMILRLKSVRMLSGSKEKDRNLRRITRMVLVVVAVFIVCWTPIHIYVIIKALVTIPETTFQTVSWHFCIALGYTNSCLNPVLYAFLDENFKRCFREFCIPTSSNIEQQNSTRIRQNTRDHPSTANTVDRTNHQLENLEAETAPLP

[2] = molecular target: FAD-linked sulfhydryl oxidase ALR (Homo sapiens, UniProt P55789); experiment: inhibitors of human ALR sulfhydryl oxidase, dose response, biochemical, H2O2 detection, luminescence, cherry-pick (AID 493248)
Sequence of FAD-linked sulfhydryl oxidase ALR (P55789 whole entry): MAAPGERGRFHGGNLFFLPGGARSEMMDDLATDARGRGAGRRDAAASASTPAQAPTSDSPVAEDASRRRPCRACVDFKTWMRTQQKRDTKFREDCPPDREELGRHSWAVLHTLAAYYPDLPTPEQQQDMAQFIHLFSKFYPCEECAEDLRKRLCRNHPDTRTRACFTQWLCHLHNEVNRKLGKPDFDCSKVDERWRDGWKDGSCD

[3] = molecular target: Histone-lysine N-methyltransferase NSD2 (Homo sapiens, UniProt O96028); type: biochemical
Sequence of Histone-lysine N-methyltransferase NSD2 (O96028 whole entry): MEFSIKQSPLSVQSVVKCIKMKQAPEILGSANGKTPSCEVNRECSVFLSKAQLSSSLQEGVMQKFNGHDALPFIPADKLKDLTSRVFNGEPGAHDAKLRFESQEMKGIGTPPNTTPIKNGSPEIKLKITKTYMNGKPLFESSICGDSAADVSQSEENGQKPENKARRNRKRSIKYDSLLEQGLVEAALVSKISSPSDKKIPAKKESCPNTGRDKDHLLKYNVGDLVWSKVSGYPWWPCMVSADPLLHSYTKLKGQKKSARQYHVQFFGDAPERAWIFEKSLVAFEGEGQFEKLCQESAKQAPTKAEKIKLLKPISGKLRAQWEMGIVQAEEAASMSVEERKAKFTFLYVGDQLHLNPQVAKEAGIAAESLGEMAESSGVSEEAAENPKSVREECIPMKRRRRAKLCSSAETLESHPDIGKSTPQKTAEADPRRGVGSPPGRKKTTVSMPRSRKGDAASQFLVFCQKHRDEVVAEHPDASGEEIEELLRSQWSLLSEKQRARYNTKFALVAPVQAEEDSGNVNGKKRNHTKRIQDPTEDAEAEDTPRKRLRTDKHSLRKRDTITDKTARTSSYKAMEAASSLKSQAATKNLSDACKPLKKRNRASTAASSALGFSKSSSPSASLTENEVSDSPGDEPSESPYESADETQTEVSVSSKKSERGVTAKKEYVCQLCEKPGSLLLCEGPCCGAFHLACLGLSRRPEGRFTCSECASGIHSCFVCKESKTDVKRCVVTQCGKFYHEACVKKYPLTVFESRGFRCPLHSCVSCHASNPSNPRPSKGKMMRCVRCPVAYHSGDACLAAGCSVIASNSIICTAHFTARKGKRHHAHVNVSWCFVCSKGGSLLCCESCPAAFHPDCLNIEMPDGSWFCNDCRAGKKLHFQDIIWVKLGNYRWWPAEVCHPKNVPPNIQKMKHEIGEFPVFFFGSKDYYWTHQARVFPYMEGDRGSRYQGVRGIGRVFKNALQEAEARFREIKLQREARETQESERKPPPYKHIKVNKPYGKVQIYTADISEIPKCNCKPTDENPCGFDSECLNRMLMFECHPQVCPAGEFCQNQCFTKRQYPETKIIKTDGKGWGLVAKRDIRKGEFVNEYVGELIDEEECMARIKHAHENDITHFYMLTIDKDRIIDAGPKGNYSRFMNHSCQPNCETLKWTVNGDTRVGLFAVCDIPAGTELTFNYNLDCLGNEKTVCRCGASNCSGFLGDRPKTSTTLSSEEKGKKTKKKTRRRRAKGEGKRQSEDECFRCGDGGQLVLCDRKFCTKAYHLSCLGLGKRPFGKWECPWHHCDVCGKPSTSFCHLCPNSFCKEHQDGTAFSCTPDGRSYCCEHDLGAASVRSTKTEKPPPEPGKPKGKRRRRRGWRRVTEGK

Beta-galactosidase = Beta-galactosidase (Escherichia coli, UniProt Q8VNN2); experiment: Dose response counterscreen for EBI2 assay utilizing the enzyme, b-galactosidase.; type: functional
Sequence of Beta-galactosidase (Q8VNN2 whole entry): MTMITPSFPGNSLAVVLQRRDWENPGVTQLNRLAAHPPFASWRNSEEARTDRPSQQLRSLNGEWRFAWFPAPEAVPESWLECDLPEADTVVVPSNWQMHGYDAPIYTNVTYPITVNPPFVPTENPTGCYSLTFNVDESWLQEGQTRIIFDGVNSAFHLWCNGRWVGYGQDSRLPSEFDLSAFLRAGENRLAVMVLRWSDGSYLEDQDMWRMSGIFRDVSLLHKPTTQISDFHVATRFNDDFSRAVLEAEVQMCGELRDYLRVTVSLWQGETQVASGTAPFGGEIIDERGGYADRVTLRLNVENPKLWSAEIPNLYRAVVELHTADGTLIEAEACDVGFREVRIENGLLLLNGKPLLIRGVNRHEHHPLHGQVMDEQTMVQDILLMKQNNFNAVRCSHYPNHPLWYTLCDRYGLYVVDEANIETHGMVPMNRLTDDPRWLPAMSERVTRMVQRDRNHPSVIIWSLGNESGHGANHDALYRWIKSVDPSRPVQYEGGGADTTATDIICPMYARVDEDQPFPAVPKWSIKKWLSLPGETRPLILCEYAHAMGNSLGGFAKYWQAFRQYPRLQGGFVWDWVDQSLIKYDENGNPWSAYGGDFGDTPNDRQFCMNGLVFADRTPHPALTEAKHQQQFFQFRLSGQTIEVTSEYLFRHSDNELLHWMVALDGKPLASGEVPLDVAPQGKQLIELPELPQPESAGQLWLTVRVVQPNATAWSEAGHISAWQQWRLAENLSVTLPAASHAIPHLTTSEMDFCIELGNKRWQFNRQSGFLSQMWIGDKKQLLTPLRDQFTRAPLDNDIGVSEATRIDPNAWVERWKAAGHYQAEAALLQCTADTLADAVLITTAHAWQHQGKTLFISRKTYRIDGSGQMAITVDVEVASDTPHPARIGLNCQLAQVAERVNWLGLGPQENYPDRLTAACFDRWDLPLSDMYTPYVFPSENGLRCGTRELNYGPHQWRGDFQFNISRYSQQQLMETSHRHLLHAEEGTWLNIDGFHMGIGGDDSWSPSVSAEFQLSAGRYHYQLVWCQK

[4] = cytotoxicity toward NIH3T3 fibroblasts, dose response, counter-screen, cell-based, ATP luminescence, mouse fibroblasts (AID 2010); type: functional;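 also: cells exposed to compound for about 90 hours before reading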
[5] = inhibitors of intracellular T. cruzi replication, confirmation, NIH3T3 host cells, beta-gal luminescence (AID 2044); type: functional, cell-based;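 also: intracellular parasites grown in NIH/3T3 mouse fibroblasts as host cells; luminescent beta-galactosidase reporter signal from transgenic T. cruzi replicating inside host cells; inhibitors lower the luminescence signal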
fMet-Leu-Phe receptor = fMet-Leu-Phe receptor (Homo sapiens, UniProt P21462); experiment: FPR ligands, dose response (AID 519); type: functional
Sequence of fMet-Leu-Phe receptor (P21462 whole entry): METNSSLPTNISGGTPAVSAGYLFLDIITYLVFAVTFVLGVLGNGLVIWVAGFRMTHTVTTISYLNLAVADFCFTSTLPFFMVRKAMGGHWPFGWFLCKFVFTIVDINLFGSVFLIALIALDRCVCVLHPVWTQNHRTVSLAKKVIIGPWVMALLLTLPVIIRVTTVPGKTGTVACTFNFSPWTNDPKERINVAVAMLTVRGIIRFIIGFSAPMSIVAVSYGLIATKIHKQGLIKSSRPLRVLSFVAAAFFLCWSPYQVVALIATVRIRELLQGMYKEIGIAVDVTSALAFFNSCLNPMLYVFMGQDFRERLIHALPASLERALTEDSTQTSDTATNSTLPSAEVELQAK

cells = type: functional, cell-based
H9c2 = experiment: cells; type: functional, cell-based; conditions: Rattus norvegicus, H9c2, Myocardium;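 also: confirmatory concentration-response retest of ultra-high-throughput screening hits for modulation of myocardial damage; cell death induced by hydrogen peroxide oxidative stress; compound pretreatment for 60 min then peroxide exposure for 2 h; potency is for protecting the cells against peroxide damage rather than for killing them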
[6] = molecular target: T1, Nuclear receptor subfamily 0 group B member 1 (Homo sapiens, UniProt P51843); type: functional, cell-based;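 also: HEK293T cells transfected with SF-1 and DAX-1 plus StAR promoter luciferase reporter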
T1 sequence (P51843 whole entry): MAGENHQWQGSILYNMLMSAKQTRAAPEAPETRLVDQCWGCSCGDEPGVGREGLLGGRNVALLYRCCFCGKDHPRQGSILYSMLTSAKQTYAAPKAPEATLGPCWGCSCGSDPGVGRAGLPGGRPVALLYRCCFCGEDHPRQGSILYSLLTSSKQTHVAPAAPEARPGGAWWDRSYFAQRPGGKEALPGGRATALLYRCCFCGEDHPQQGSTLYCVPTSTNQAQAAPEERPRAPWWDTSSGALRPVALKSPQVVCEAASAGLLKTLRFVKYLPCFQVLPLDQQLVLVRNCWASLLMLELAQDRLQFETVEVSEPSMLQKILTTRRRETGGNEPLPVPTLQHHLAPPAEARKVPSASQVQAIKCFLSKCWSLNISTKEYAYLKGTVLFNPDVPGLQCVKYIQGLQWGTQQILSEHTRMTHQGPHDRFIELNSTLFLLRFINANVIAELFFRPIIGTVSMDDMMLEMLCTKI

[7] = molecular target: DNA repair protein RAD52 homolog (Homo sapiens, UniProt P43351); type: functional, biochemical
Sequence of DNA repair protein RAD52 homolog (P43351 whole entry, the tested form may be a part): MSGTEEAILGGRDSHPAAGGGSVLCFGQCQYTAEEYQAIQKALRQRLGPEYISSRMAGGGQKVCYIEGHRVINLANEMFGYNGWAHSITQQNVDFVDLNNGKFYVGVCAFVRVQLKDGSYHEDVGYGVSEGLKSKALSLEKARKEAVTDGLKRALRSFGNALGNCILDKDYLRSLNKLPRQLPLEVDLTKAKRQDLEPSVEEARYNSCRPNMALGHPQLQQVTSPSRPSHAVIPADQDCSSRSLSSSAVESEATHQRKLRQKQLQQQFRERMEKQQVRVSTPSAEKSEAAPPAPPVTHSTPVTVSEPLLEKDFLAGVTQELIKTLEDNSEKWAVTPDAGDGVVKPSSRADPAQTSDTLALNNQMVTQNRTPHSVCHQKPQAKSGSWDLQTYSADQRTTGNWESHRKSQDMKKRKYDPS

[8] = inhibitors of HIV Env-driven cell fusion, dose response, cherry-pick (AID 652057); type: functional, cell-based
[9] = CEM21 lymphoblast cell cytotoxicity, dose response, cytotoxicity control for viral fusion inhibitor project, CellTiter-Glo luminescence, cherry-picked (AID 652042); type: functional, cell-based;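 also: potency for signal decrease meaning cytotoxicity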
[10] = off-target signal loss in HeLa-CEM21 co-culture – HeLa F-luc CTL cells, cherry-picked, counter-screen for HIV-1 Env fusion inhibitor project, dose response (AID 652040); type: functional, cell-based;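 also: potency for signal decrease marking cytotoxic or nonspecific inhibition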
[11] = ZM109 Env clade C HIV-1 fusion inhibitors, dose response, HeLa effector, CEM target cells, luciferase, cherry-pick (AID 652058); type: functional, cell-based
[12] = inhibitors of clade B AD8 Env fusion, dose response, cell-based, cherry-pick (AID 652062); type: functional;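 also: luciferase signal from cell-cell fusion driven by HIV-1 clade B AD8 Env; potency is for inhibitors of fusion seen as a drop in luminescence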
[13] = HEK293 Cytotoxicity Assay Measured in Cell-Based System Using Plate Reader - 7071-01_Inhibitor_Dose_CherryPick_Activity_Set2.; type: functional
HEK293 [14] = experiment: HEK293T cell cytotoxicity, dose response, cytotoxicity control, ATP luminescence, cherry-pick samples (AID 687005); type: functional, cell-based; conditions: Homo sapiens;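 also: cells exposed to compound for 48 hours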
[15] = NIH:OVCAR-3 ovarian cancer cell cytotoxicity, dose response, PAX8 inhibitor project, plate reader, dry powder samples (AID 743044); type: functional, cell-based
[16] = IGROV1 ovarian cancer cell cytotoxicity, dose response, PAX8 inhibitor project, plate reader, dry powder samples (AID 743043); type: functional, cell-based; conditions: IGROV-1
Paired box protein Pax-8 = Paired box protein Pax-8 (Homo sapiens, UniProt Q06710); experiment: inhibitors of PAX8-driven TPO luciferase reporter, dose response, RMG-I cells, cherry-pick (AID 687027); type: functional, cell-based;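 also: luciferase reporter driven by Pax8 target thyroperoxidase promoter measured by SteadyGlo luminescence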
Sequence of Paired box protein Pax-8 (Q06710 whole entry): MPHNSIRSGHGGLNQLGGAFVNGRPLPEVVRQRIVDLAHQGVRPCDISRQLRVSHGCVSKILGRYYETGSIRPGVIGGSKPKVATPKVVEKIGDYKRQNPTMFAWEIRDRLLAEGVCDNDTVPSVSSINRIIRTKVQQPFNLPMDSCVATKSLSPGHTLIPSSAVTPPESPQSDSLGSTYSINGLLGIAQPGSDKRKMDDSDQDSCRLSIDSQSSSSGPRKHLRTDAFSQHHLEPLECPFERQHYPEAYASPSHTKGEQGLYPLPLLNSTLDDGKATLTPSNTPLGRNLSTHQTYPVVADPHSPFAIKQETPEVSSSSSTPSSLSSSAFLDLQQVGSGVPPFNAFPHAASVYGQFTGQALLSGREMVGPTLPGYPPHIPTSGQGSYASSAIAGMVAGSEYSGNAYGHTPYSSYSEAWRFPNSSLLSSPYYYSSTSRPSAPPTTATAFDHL

[17] = HEK293T cytotoxicity, dose response, cytotoxicity control for miR-122 modulator project, cell-based, inhibitor set, cherry-pick, set 2 (AID 720697); type: functional
[18] = HEK293T cytotoxicity, dose response, cytotoxicity control for miR-122 modulator project, cell-based, activator set, cherry-pick (AID 720690); type: functional;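 also: HEK293T human cells scored for general mammalian cytotoxicity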
BJ [19] = experiment: cells; type: functional, cell-based; conditions: Homo sapiens
[20] = HepG2 cell cytotoxicity, dose response, cytotoxicity control, plate reader, cherry-pick, antagonist series (AID 743416); type: functional, cell-based
BJ [21] = experiment: cytotoxicity toward Ras-transformed BJeLR fibroblasts, dose response, cell-based, alamar blue fluorescence, cherrypicked samples (AID 2631); type: functional; conditions: Homo sapiens;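 also: confirmatory dose-response assay in RAS-dependent BJ fibroblasts engineered with TERT, LT and ST, with cytotoxicity read by fluorescence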
HEK293 [22] = experiment: inhibitors of LMP1-driven NF-kB reporter, dose response, cell-based, HEK293, luciferase, cherry-pick (AID 588343); type: functional; conditions: Homo sapiens
BJ [23] = experiment: cytotoxicity toward BJ-TERT-LT-ST fibroblasts, dose response, cell-based, RAS-independent, luminescence (AID 1935); type: functional; conditions: Homo sapiens;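 also: BJ fibroblasts immortalized with TERT plus LT and ST oncogenes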
[24] = miR-122 activators in hepatoma reporter cells, dose response, cell-based, Huh7 psiCHECK-miR122, Renilla luciferase, cherry-picked (AID 651956); type: functional;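 also: huh7 hepatoma cells stably carrying a psiCHECK-2 miR-122 sensor plasmid; renilla luciferase signal reporting endogenous miR-122 activity after 48 h compound exposure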
[25] = Shn3 3'UTR reporter inhibitors, dose response, cell-based, Clone20 osteoblasts, firefly luciferase, cherry-picked (AID 624132); type: functional;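 also: firefly luciferase luminescence from reporter carrying the Shn3 3'UTR in osteoblasts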
[26] = control 3'UTR Renilla luciferase suppression, dose response, counter-screen for Shn3 inhibitor project, cell-based, Clone20-Shn3RL, cherry-picked (AID 624133); type: functional
BJ [27] = experiment: cytotoxicity toward BJ-TERT fibroblasts, dose response, cell-based, RAS-independent, luminescence (AID 1933); type: functional; conditions: Homo sapiens
[28] = A549 cell cytotoxicity, dose response, cytotoxicity control, plate reader, cherry-pick, antagonist series (AID 743412); type: functional, cell-based
[29] = Fluorescence-based cell-based high throughput dose response assay for inhibitors of the interaction of nucleotide-binding oligomerization domain containing 2 (NOD2) and the receptor-interacting serine-threonine kinase 2 (RIPK2).; type: functional; conditions: Homo sapiens
[30] = HEK293 cell cytotoxicity, dose response, cytotoxicity control, plate reader, cherry-picked samples (AID 743446); type: functional, cell-based
[31] = LGR2 antagonists, dose response, cell-based, HEK293, CRE-luciferase reporter, cherry pick, set 2 (AID 743343); type: functional;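 also: transfected cells were stimulated with diluted bursicon conditioned medium after compound addition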
[32] = HepG2 cell cytotoxicity, dose response, cytotoxicity control for Shn3 inhibitor project, CellTiter-Glo, cherry-picked (AID 624134); type: functional, cell-based
[33] = cytotoxicity toward DRD oncogenic fibroblasts, dose response, cell-based, non-viral oncogenic, luminescence (AID 1934); type: functional; conditions: Homo sapiens
[34] = MC4R antagonists, dose response, counter-screen for LGR2 antagonist project, cell-based, plate reader, cherry pick (AID 743444); type: functional;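 also: transfected HEK 293 cells stimulated with alpha-MSH peptide; potency of inhibitors of the alpha-MSH evoked signal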
[35] = non-specific cell cytotoxicity, dose response, cytotoxicity control for PAX8 inhibitor project, plate reader, dry powder samples (AID 743021); type: functional, cell-based
[36] = Luminescence Cell-Based Dose Retest to Confirm Inhibitors of Cancer Stem Cells. [Related pubchem assays (depositor defined):AID2717, AID2721]; type: functional; conditions: Homo sapiens
[37] = HeLa 2N DNA content increase, dose response, cell-based, IC50 (AID 1117349); type: functional
[38] = cytotoxicity toward HCT116 cells – cell-based, CellTiter-Glo luminescence, IC50, dose response (AID 1117332); type: functional; conditions: HCT-116
[39] = RKO cell viability reduction, dose response, CellTiter-Glo luminescence (AID 1117322); type: functional
[40] = cytotoxicity toward HT-29 cells – cell-based, CellTiter-Glo luminescence, IC50, dose response (AID 1117330); type: functional
[41] = HeLa 4N DNA content increase, dose response, cell-based, IC50 (AID 1117351); type: functional
[42] = Concentration-dependent survival of SW480 colon cancer line, luminescence detection with CellTiter-Glo, half-maximal inhibitory concentration (AID 1117338); type: functional
[43] = SNU-C1 cell viability reduction, dose response, CellTiter-Glo luminescence (AID 1117323); type: functional, cell-based
[44] = cytotoxicity toward Colo320 cells – cell-based, CellTiter-Glo luminescence, IC50, dose response (AID 1117334); type: functional; conditions: COLO 320

Sequence of 5-hydroxytryptamine receptor 2A (P35363 whole entry): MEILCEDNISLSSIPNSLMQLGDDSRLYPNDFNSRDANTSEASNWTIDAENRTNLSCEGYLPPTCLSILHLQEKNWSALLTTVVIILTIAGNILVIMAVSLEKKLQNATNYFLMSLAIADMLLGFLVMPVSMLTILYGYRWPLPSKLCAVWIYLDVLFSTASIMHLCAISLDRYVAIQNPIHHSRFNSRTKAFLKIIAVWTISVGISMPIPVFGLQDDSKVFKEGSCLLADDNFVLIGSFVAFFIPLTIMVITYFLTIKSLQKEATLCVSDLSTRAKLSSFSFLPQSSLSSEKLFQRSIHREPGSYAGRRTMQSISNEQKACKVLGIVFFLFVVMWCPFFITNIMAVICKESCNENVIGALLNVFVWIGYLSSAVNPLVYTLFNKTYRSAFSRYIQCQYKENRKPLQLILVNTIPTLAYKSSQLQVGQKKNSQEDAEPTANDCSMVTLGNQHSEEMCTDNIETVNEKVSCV

COc1cc(Br)cc(CN2CCN(c3ncccn3)CC2)c1O
EC50 [1]: 1.02 µM (active)
EC50 (Mu-type opioid receptor): 92.5 µM (inactive)
AC50 [2]: > 100 µM (inactive)

Nc1ccc2nn(-c3cc([N+](=O)[O-])ccc3O)nc2c1
AC50 [3]: > 20 µM (inactive)

COc1cccc(-c2cc(C(=O)N3CCN(C(c4ccccc4)c4ccccc4)CC3)no2)c1
IC50 (Beta-galactosidase): > 80 µM (inactive)
EC50 [4]: 25.2 µM (active)
EC50 [5]: 1.61 µM (active)

CC(C)OC(=O)c1nnn(-c2nonc2N)c1CN1CCc2ccccc2C1
Ki (fMet-Leu-Phe receptor): 50 µM (inactive)

COc1cc(/C=C(\C#N)C(=O)Nc2ccccc2F)ccc1OCCN1CCOCC1
IC50 (cells): > 67.5 µM (inactive)
IC50 (H9c2): 8.88 µM (active)
IC50 [6]: > 67.5 µM (inactive)

COc1ccc(CN2CCN(C(=O)c3cccs3)CC2)cc1
EC50 [1]: 76.1 µM (inactive)
EC50 (Mu-type opioid receptor): 92.5 µM (inactive)

CN(C)CCCNc1ncnc2oc(-c3ccccc3)c(-c3ccccc3)c12
AC50 [7]: 21.7 µM (active)

O=C(C1=C(O)C(=O)N(Cc2ccccc2)C1c1ccco1)c1ccco1 (stereo not given)
Ki (fMet-Leu-Phe receptor): 12.4 µM (active)

COc1ccc(OCC(=O)N2CCN(S(=O)(=O)c3ccc(Cl)s3)CC2)cc1
IC50 (Beta-galactosidase): > 80 µM (inactive)

COC(=O)[C@]12C[C@H](CC(=O)NCC3CCCCC3)C(=O)N(CCC3=CCCCC3)C1=C[C@H](C(C)(C)C)O[C@@H]2C
AC50 [8]: 2.45 µM (active)
AC50 [9]: 21.5 µM (active)
AC50 [10]: 3.68 µM (active)
AC50 [11]: 3.66 µM (active)
AC50 [12]: 3.6 µM (active)

Cc1ccc(S(=O)(=O)N[C@H]2C=C[C@@H](CC(=O)N3CCC(Cc4ccccc4)CC3)O[C@H]2CO)cc1
AC50 [13]: 14.2 µM (active)
AC50 (HEK293 [14]): 14.2 µM (active)

COc1ccc(S(=O)(=O)N[C@H]2C=C[C@H](CC(=O)N3CCC(Cc4ccccc4)CC3)O[C@@H]2CO)cc1
AC50 [13]: 9.52 µM (active)
AC50 (HEK293 [14]): 9.52 µM (active)

C[C@H]1CCCCO[C@H](CN(C)Cc2ccc(C(F)(F)F)cc2)[C@@H](C)CN([C@@H](C)CO)C(=O)c2cc(NC(=O)c3ccccc3)ccc2O1
AC50 [15]: 21.2 µM (active)
AC50 [16]: 36.4 µM (active)
AC50 (Paired box protein Pax-8): 8.95 µM (active)

C[C@@H]1CN([C@@H](C)CO)C(=O)c2cc(NC(=O)NC3CCCCC3)ccc2O[C@@H]1CN(C)C(=O)Nc1ccc2c(c1)OCO2
AC50 [17]: 9.33 µM (active)

C[C@H]1CN([C@@H](C)CO)S(=O)(=O)c2ccc(-c3ccccc3F)cc2O[C@@H]1CN(C)Cc1cccnc1
AC50 [18]: 23 µM (active)

Cc1cccc(-n2ncc(Cl)c(Cl)c2=O)c1
EC50 (BJ [19]): > 150 µM (inconclusive)
AC50 [20]: 8.69 µM (active)
EC50 (BJ [21]): 0.556 µM (active)
AC50 (HEK293 [22]): 3.08 µM (active)
EC50 (BJ [23]): 5.1 µM (inconclusive)
AC50 [24]: 8.05 µM (active)
AC50 [25]: 5.8 µM (active)
AC50 [26]: 12.4 µM (active)
EC50 (BJ [27]): 1.02 µM (active)
AC50 [28]: 7.6 µM (active)
IC50 [29]: 5.33 µM (active)
AC50 [30]: 7.36 µM (active)
AC50 [31]: 20.4 µM (active)
AC50 [32]: 40.7 µM (active)
AC50 [18]: 2.27 µM (active)
EC50 [33]: 5.17 µM (active)
AC50 (Paired box protein Pax-8): 5.11 µM (active)
AC50 [34]: 27.5 µM (active)
AC50 [35]: 25.6 µM (active)
AC50 [36]: 2.66 µM (active)

COC(=O)Nc1nc2ccc(C(=O)C3CC3)cc2[nH]1 [CYCLOBENDAZOLE]
IC50 [37]: 0.417 µM (active)
IC50 [38]: 0.174 µM (active)
IC50 (cells): > 67.5 µM (inactive)
IC50 [39]: 0.162 µM (active)
IC50 [40]: 1.68 µM (active)
IC50 [41]: 0.416 µM (active)
IC50 [42]: > 20 µM (inactive)
IC50 [6]: > 67.5 µM (inactive)
IC50 [43]: > 20 µM (inactive)
IC50 [44]: 0.156 µM (active)
